Experimental data published in article PMC5078989, “Targeted inhibition of the COP9 signalosome for treatment of cancer” (Nature Communications, 2016).
pEC50: −log10 of the molar value.

Test system: panel of cancer cell lines
Test: Cell viability (CellTiter-Glo) dose-response across cancer cell line panel;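 note: after 72 h compound incubation with CellTiter-Glo ATP readout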
Format: cell-based, human
Conditions: Homo sapiens
Text: Next, we explored the effect of CSN5 inhibition on the viability of cancer cells. To obtain a comprehensive picture, we generated dose–response curves with a CSN5 inhibitor across more than 500 cancer cell lines in a previously described standardized setting[47] (Supplementary Data 1).
A standardized CellTiter-Glo Assay (Promega #G7570) based on the quantification of ATP was applied according to the manufacturer's protocol to measure the amount of viable cells in culture. In brief, cells were seeded into 384-well plates at optimal density for each cell line. After 4 h, compounds were added at different concentrations in growth medium and incubated for another 72 h in a humidifying chamber at 37 °C and 5% CO2. […] EC50 values were calculated from the plot of percentage of inhibition versus inhibitor concentration using the nonlinear regression analysis software Origin 7.5SR6 (OriginLab Corp.).

pEC50 (NALM-6, NALM-6): 8.09 | pEC50 (NB1, NB-1): 8.12 | pEC50 (NB-4, NB-4): 8.36 | pEC50 (NCI-H28, NCI-H28): 8.00 | pEC50 (NCI-H82, cell line NCI-H82): 8.90 | pEC50 (NCI-H146, cell line NCI-H146): 7.96 | pEC50 (NCI-H196, NCI-H196): 7.57 | pEC50 (NCI-H226, cell line NCI-H226): 7.83 | pEC50 (NCI-H358, NCI-H358): 7.99 | pEC50 (NCI-H441, NCI-H441): 7.81 | pEC50 (NCI-H460, cell line NCI-H460): 7.07 | pEC50 (NCI-H520, cell line NCI-H520): 8.10 | pEC50 (NCI-H524, NCI-H524): 8.11 | pEC50 (NCI-H596, NCI-H596): 7.68 | pEC50 (NCI-H647, cell line NCI-H647): 7.86 | pEC50 (NCI-H650, NCI-H650): 6.93 | pEC50 (NCI-H661, cell line NCI-H661): 7.76 | pEC50 (NCI-H716, NCI-H716): 8.29 | pEC50 (NCI-H727, NCI-H727): 7.56 | pEC50 (NCI-H810, cell line NCI-H810): 7.93 | pEC50 (NCI-H838, NCI-H838): 7.55 | pEC50 (NCI-H841, NCI-H841): 7.75 | pEC50 (NCI-H1048, NCI-H1048): 7.73 | pEC50 (NCI-H1092, NCI-H1092): 7.72 | pEC50 (NCI-H1184): 8.14 | pEC50 (NCI-H1299, cell line NCI-H1299): 7.73 | pEC50 (NCI-H1341): 7.96 | pEC50 (NCI-H1355, cell line NCI-H1355): 7.56 | pEC50 (NCI-H1437, cell line NCI-H1437): 7.71 | pEC50 (NCI-H1563, cell line NCI-H1563): 7.24 | pEC50 (NCI-H1568, cell line NCI-H1568): 7.91 | pEC50 (NCI-H1573, NCI-H1573): 7.42 | pEC50 (NCI-H1581, cell line NCI-H1581): 7.89 | pEC50 (NCI-H1623, NCI-H1623): 7.85 | pEC50 (NCI-H1650, cell line NCI-H1650): 8.48 | pEC50 (NCI-H1651, NCI-H1651): 8.05 | pEC50 (NCI-H1666, cell line NCI-H1666): 8.11 | pEC50 (NCI-H1693, NCI-H1693): 8.25 | pEC50 (NCI-H1703, cell line NCI-H1703): 8.04 | pEC50 (NCI-H1734, NCI-H1734): 8.04 | pEC50 (NCI-H1781, cell line NCI-H1781): 7.89 | pEC50 (NCI-H1792, cell line NCI-H1792): 7.29 | pEC50 (NCI-H1793, cell line NCI-H1793): 7.26 | pEC50 (NCI-H1869): 8.47 | pEC50 (NCI-H1944, NCI-H1944): 7.26 | pEC50 (NCI-H1975, cell line NCI-H1975): 8.02 | pEC50 (NCI-H2023, NCI-H2023): 7.62 | pEC50 (NCI-H2073, NCI-H2073): 7.58 | pEC50 (NCI-H2087, cell line NCI-H2087): 8.14 | pEC50 (NCI-H2122, cell line NCI-H2122): 7.65 | pEC50 (NCI-H2126, cell line NCI-H2126): 7.61 | pEC50 (NCI-H2170, cell line NCI-H2170): 7.81 | pEC50 (NCI-H2172, NCI-H2172): 7.29 | pEC50 (NCI-H2405, NCI-H2405): 7.78 | pEC50 (NCI-H2452, NCI-H2452): 7.66 | pEC50 (NCI-H3255, NCI-H3255): 8.06 | pEC50 (NOMO-1, NOMO-1): 7.93 | pEC50 (NUGC-3, cell line NUGC-3): 7.92 | pEC50 (NUGC-4, cell line NUGC-4): 7.79 | pEC50 (OAW-42, OAW42): 7.84 | pEC50 (OC 316): 8.05 | pEC50 (OC-314, OC 314): 8.07 | pEC50 (OCI-AML2, OCI-AML2): 8.07 | pEC50 (OCI-AML-3, OCI-AML3): 8.26 | pEC50 (OCI-AML-5, OCI-AML5): 8.04 | pEC50 (OCI-LY19, OCI-LY-19): 7.95 | pEC50 (OCI-Ly3, OCI-LY3): 8.26 | pEC50 (OCI-Ly10, OCI-LY10): 8.26 | pEC50 (OCI-M1, OCI-M1): 8.62 | pEC50 (OE19, cell line OE19): 7.87 | pEC50 (OE33, cell line OE33): 7.70 | pEC50 (ONCO-DG-1, ONCO-DG-1): 7.94 | pEC50 (OS-RC-2, OS-RC-2): 7.73 | pEC50 (OUMS-23, OUMS-23): 7.85 | pEC50 (OV7, OV7): 8.08 | pEC50 (OV56, cell line OV56): 7.87 | pEC50 (OV-90, OV-90): 7.82 | pEC50 (OVCAR-4, cell line OVCAR-4): 7.92 | pEC50 (OVCAR-8, cell line OVCAR-8): 7.71 | pEC50 (OVISE): 8.01 | pEC50 (OVSAHO): 8.04 | pEC50 (P3HR-1, P3HR-1): 8.08 | pEC50 (P12-Ichikawa): 8.74 | pEC50 (P31-FUJ, P31/FUJ): 8.23 | pEC50 (PANC-1, cell line PANC-1): 8.06 | pEC50 (PANC-03-27, cell line Panc 03.27): 7.98 | pEC50 (PC-14, cell line PC-14): 7.82 | pEC50 (PE/CA-PJ41 (clone D2)): 8.01 | pEC50 (PEER): 7.93 | pEC50 (PF-382, PF-382): 8.56 | pEC50 (PL-21, PL-21): 7.93 | pEC50 (PLC-PRF-5, PLC/PRF/5): 8.12 | pEC50 (PSN1, cell line PSN1): 7.98 | pEC50 (PaTu 8988s, PA-TU-8988S): 7.86 | pEC50 (Panc 02.03, cell line Panc 02.03): 7.96 | pEC50 (Panc 04.03, cell line Panc 04.03): 7.65 | pEC50 (Panc1005, cell line Panc 10.05): 8.28 | pEC50 (RCC10RGB): 8.29 | pEC50 (RCH-ACV): 8.68 | pEC50 (RD): 8.11 | pEC50 (REH): 8.33 | pEC50 (RKN): 7.79 | pEC50 (RMUG-S): 7.17 | pEC50 (RPMI 8402, RPMI-8402): 8.23 | pEC50 (RPMI-7951, cell line RPMI-7951): 7.99 | pEC50 (RPMI-8226, cell line RPMI 8226): 8.48 | pEC50 (RS4-11, cell line RS4;11): 8.77 | pEC50 (RT-112, RT-112): 8.28 | pEC50 (RVH-421, RVH-421): 8.07 | pEC50 (Raji, cell line Raji): 7.97 | pEC50 (Rec1, cell line REC-1): 8.02 | pEC50 (Rh18, cell line RH-18): 7.51 | pEC50 (Rh41, cell line RH-41): 8.13 | pEC50 (Ri-1, RI-1): 8.31 | pEC50 (SCaBER, cell line SCaBER): 7.85 | pEC50 (SEM): 8.62 | pEC50 (SET-2, cell line Set-2): 7.98 | pEC50 (SF-126, SF126): 7.88 | pEC50 (SF-295, cell line SF-295): 7.93 | pEC50 (SH-4, SH-4): 8.34 | pEC50 (SH-10-TC, cell line SH-10-TC): 7.79 | pEC50 (SHP77, SHP-77): 7.92 | pEC50 (SIG-M5, SIG-M5): 8.29 | pEC50 (SJRH30, cell line SJRH30): 7.78 | pEC50 (SJSA-1, cell line SJSA-1): 7.58 | pEC50 (SK-BR-3, cell line SK-BR-3): 8.19 | pEC50 (SK-CO-1, SK-CO-1): 8.24 | pEC50 (SK-ES1, cell line SK-ES-1): 8.01 | pEC50 (SK-LMS-1, SK-LMS-1): 8.08 | pEC50 (SK-LU-1, SK-LU-1): 8.02 | pEC50 (SK-MEL3, cell line SK-MEL-3): 8.05 | pEC50 (SK-MEL-1, SK-MEL-1): 7.73 | pEC50 (SK-MEL-2, cell line SK-MEL-2): 7.98 | pEC50 (SK-MEL-5, cell line SK-MEL-5): 8.06 | pEC50 (SK-MEL-24, SK-MEL-24): 7.71 | pEC50 (SK-MEL-30, cell line SK-MEL-30): 7.97 | pEC50 (SK-MES-1, cell line SK-MES-1): 7.80 | pEC50 (SK-N-AS, cell line SK-N-AS): 8.14 | pEC50 (SK-N-DZ): 8.05 | pEC50 (SK-N-FI, cell line SK-N-FI): 7.94 | pEC50 (SK-N-SH): 8.14 | pEC50 (SK-OV-3, cell line SK-OV-3): 7.57 | pEC50 (SK-UT-1, SK-UT-1): 8.07 | pEC50 (SKM-1, SKM-1): 8.43 | pEC50 (SKNBE2, SK-N-BE(2)): 8.06 | pEC50 (SNG-M): 8.15 | pEC50 (SNU1, SNU-1): 7.77 | pEC50 (SNU878, SNU-878): 7.64 | pEC50 (SNU-16, cell line SNU-16): 8.24 | pEC50 (SNU-119): 7.71 | pEC50 (SNU-216, SNU-216): 7.82 | pEC50 (SNU-449, SNU-449): 7.52 | pEC50 (SNU-475, SNU-475): 7.61 | pEC50 (SNU-626): 7.82 | pEC50 (SNU-738): 7.49 | pEC50 (SNU-1079): 8.05 | pEC50 (SNU-C1, SNU-C1): 8.42 | pEC50 (SNU-C5): 7.78
SMILES: CC(C)C[C@H](NC(=O)[C@H](Cc1ccccc1)NC(=O)c1cnccn1)B(O)O [Bortezomib]
